The text below walks through data of patent US10023592B2, “Bromodomain inhibitors” (Celgene Quanticel Research, Inc., priority 2013, dated 2018).

For assay [1], the system named is NCI-H460, human non-small cell lung cancer cells. Briefly: Cell-MTS proliferation assay, NCI-H460. In kind it is cell-based. The conditions noted are these: Homo sapiens, 168 hr. The gist of the method: (§1)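 Cells were seeded per 96-well at densities giving ~90% confluence by day 7 (Raji 15,000, HL-60 5,000, NCI-H460 3,000) and dosed 24 hr later with an 11-point dilution, 100 μM to 2.0 nM final. Seven-day MTS colorimetric read at OD490; IC50 from background-subtracted, DMSO-normalised values.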
For orientation: Formazan colour is commonly taken as a measure of viable cells.

The target in the next assay is BRD4(BD1) (Homo sapiens (Human), UniProt O60885). As to the kind of experiment: In vitro enzyme inhibition assay (BRD4 AlphaScreen). In kind it is binding. In a few lines:
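AlphaScreen proximity readout, using streptavidin donor and Ni-chelate acceptor beads at 5 μg/mL final, monitors biotin-H4 tetraacetylated peptide interaction with purified His-tagged BRD4.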
(In general: In Alpha technology, singlet oxygen from a donor bead excites a nearby acceptor bead.)

Assay [2] concerns Raji, human Burkitts lymphoma cells. Briefly: Cell-MTS proliferation assay, Raji. The format is cell-based. Particulars: Homo sapiens, 168 hr. The gist of the method:
as §1

Assay [3] deals with HL-60, human proleukemia cells. As to the kind of experiment: Cell-MTS proliferation assay, HL-60. The format is cell-based. Particulars: Homo sapiens, 168 hr. The gist of the method: as §1
Where [4] appears, read: NCI-H460, Cell-MTS proliferation.
The mark [5] stands for this setting: in vitro enzyme inhibition assay.
Where [6] appears, read: Cell-MTS proliferation, NCI-H460 cells.
Setting [7] is: Cell-MTS proliferation, Raji cells.
Where [8] appears, read: Cell-MTS proliferation, HL-60 cells.
The mark [9] stands for this setting: NCI-H460, Cell-MTS, class symbols A/B/C.
The mark [10] stands for this setting: Raji, Cell-MTS, class symbols A/B/C.
The mark [11] stands for this setting: HL-60, Cell-MTS, class symbols A/B/C.

With `Cn1cc(-c2cc(S(C)(=O)=O)ccc2OC2CCOC2)c2ccccc2c1=O` (stereo not shown) [Example 175, 2-methyl-4-[5-methylsulfonyl-2-(oxolan-3-yloxy)phenyl]isoquinolin-1-one], the IC50 (in general, the concentration that inhibits the measured activity by half) is greater than 5000 nM in assay [1] (setting [4]); less than 500 nM at BRD4(BD1) (setting [5]); less than 500 nM in assay [2] (Raji, Cell-MTS proliferation); less than 500 nM in assay [3] (HL-60, Cell-MTS proliferation).
Consider `Cn1cc(-c2cc(S(C)(=O)=O)ccc2OCC2CC2)c2occc2c1=O` [Example 377, 7-[2-(cyclopropylmethoxy)-5-methylsulfonylphenyl]-5-methylfuro[3,2-c]pyridin-4-one], for which the IC50 was greater than 5000 nM in assay [1] (setting [6]), less than 500 nM against BRD4(BD1) (setting [5]), less than 500 nM in assay [2] (setting [7]) and less than 500 nM in assay [3] (setting [8]).
For `CCS(=O)(=O)c1cc(-c2cn(C)c(=O)c3ccccc23)c(NCC2CC2)s1` [Example 205, 4-[2-(cyclopropylmethylamino)-5-ethylsulfonylthiophen-3-yl]-2-methylisoquinolin-1-one], the IC50 in assay [1] (setting [4]) is greater than 5000 nM; on BRD4(BD1) (setting [5]) it was less than 500 nM; in assay [2] (Raji, Cell-MTS proliferation) it was 500 to 5000 nM; in assay [3] (HL-60, Cell-MTS proliferation) it was 500 to 5000 nM.
Turning to `Cn1cc(-c2cc(S(C)(=O)=O)ccc2OCC2CC2)c2ccccc2c1=O` [Example 89, 4-[2-(cyclopropylmethoxy)-5-methylsulfonylphenyl]-2-methylisoquinolin-1-one], the IC50 was greater than 5000 nM in assay [1] (setting [9]), less than 500 nM on BRD4(BD1) (class symbols A/B/C), less than 500 nM in assay [2] (setting [10]) and less than 500 nM in assay [3] (setting [11]).
Regarding `Cc1cc(-c2cc(S(C)(=O)=O)ccc2NC2CCOCC2)cn(C)c1=O` [Example 436, 1,3-dimethyl-5-[5-methylsulfonyl-2-(oxan-4-ylamino)phenyl]pyridin-2-one], the half-inhibitory concentration (IC50) in assay [1] (setting [6]) was greater than 5000 nM; on BRD4(BD1) (setting [5]) it was less than 500 nM; in assay [2] (setting [7]) it was 500 to 5000 nM; in assay [3] (setting [8]) it was less than 500 nM.
`CCS(=O)(=O)c1ccc(OCC2CC2)c(-c2cn(C)c(=O)c3ccc(F)cc23)c1` [Example 174, 4-[2-(cyclopropylmethoxy)-5-ethylsulfonylphenyl]-6-fluoro-2-methylisoquinolin-1-one]: the IC50 was greater than 5000 nM in assay [1] (setting [4]); less than 500 nM against BRD4(BD1) (setting [5]); less than 500 nM in assay [2] (Raji, Cell-MTS proliferation); less than 500 nM in assay [3] (HL-60, Cell-MTS proliferation).
As to `CCS(=O)(=O)Nc1ccc(Oc2ccc(F)cc2F)c(-c2cn(C)c(=O)c3nc(C)oc23)c1` [Example 241, N-[4-(2,4-difluorophenoxy)-3-(2,5-dimethyl-4-oxo-[1,3]oxazolo[4,5-c]pyridin-7-yl)phenyl]ethanesulfonamide], the IC50 in assay [1] (setting [4]) is greater than 5000 nM; against BRD4(BD1) (setting [5]), less than 500 nM; in assay [2] (Raji, Cell-MTS proliferation), less than 500 nM; in assay [3] (HL-60, Cell-MTS proliferation) it was less than 500 nM.
For the molecule `CCS(=O)(=O)c1cnc(OCC2CC2)c(-c2cn(C)c(=O)c3ccccc23)c1` [Example 322, 4-[2-(cyclopropylmethoxy)-5-ethylsulfonylpyridin-3-yl]-2-methylisoquinolin-1-one], the IC50 in assay [1] (setting [4]) was greater than 5000 nM; at BRD4(BD1) (setting [5]), less than 500 nM; in assay [2] (Raji, Cell-MTS proliferation), less than 500 nM; in assay [3] (HL-60, Cell-MTS proliferation), less than 500 nM.
For the molecule `CCS(=O)(=O)Cc1ccc(OCC(F)(F)F)c(-c2cn(C)c(=O)c3ccccc23)c1` [Example 487, 4-[5-(ethylsulfonylmethyl)-2-(2,2,2-trifluoroethoxy)phenyl]-2-methylisoquinolin-1-one], the IC50 in assay [1] (setting [6]) is greater than 5000 nM; against BRD4(BD1) (setting [5]) it was less than 500 nM; in assay [2] (setting [7]), less than 500 nM; in assay [3] (setting [8]), less than 500 nM.
For the molecule `CCOc1ccc(S(=O)(=O)CC)cc1-c1cc(N(C)C)c(=O)n(C)c1` [Example 469, 3-(dimethylamino)-5-(2-ethoxy-5-ethylsulfonylphenyl)-1-methylpyridin-2-one], the concentration for half-maximal inhibition (IC50) in assay [1] (setting [6]) is greater than 5000 nM; against BRD4(BD1) (setting [5]), less than 500 nM; in assay [2] (setting [7]) it was less than 500 nM; in assay [3] (setting [8]) it was less than 500 nM.
Consider `CCS(=O)(=O)Nc1cc(Oc2ccc(F)cc2F)cc(-c2cc(C)c(=O)n(C)c2)c1` [Example 342, N-[3-(2,4-difluorophenoxy)-5-(1,5-dimethyl-6-oxopyridin-3-yl)phenyl]ethanesulfonamide], for which the IC50 in assay [1] (setting [4]) was 500 to 5000 nM; at BRD4(BD1) (setting [5]), less than 500 nM; in assay [2] (Raji, Cell-MTS proliferation) it was less than 500 nM; in assay [3] (HL-60, Cell-MTS proliferation), less than 500 nM.
Regarding `CCS(=O)(=O)Nc1ccc(Oc2ccc(F)cc2F)c(-c2cc(SC)c(=O)n(C)c2)c1` [Example 402, N-[4-(2,4-difluorophenoxy)-3-(1-methyl-5-methylsulfanyl-6-oxopyridin-3-yl)phenyl]ethanesulfonamide], the 50% inhibitory concentration (IC50) in assay [1] (setting [6]) was greater than 5000 nM; against BRD4(BD1) (setting [5]), less than 500 nM; in assay [2] (setting [7]), less than 500 nM; in assay [3] (setting [8]) it was less than 500 nM.
In the case of `CN(C)c1cc(-c2cc(S(C)(=O)=O)ccc2OCC2CC2)cn(C)c1=O` [Example 474, 5-[2-(cyclopropylmethoxy)-5-methylsulfonylphenyl]-3-(dimethylamino)-1-methylpyridin-2-one], the IC50 in assay [1] (setting [6]) was greater than 5000 nM; at BRD4(BD1) (setting [5]) it was less than 500 nM; in assay [2] (setting [7]), less than 500 nM; in assay [3] (setting [8]), less than 500 nM.
In the case of `CCS(=O)(=O)Nc1ccc(Oc2ccc(F)cc2F)c(-c2cc(F)c(=O)n(C)c2)c1` [Example 122, N-[4-(2,4-difluorophenoxy)-3-(5-fluoro-1-methyl-6-oxopyridin-3-yl)phenyl]ethanesulfonamide], the half-inhibitory concentration (IC50) was greater than 5000 nM in assay [1] (setting [9]), less than 500 nM against BRD4(BD1) (class symbols A/B/C), less than 500 nM in assay [2] (setting [10]) and less than 500 nM in assay [3] (setting [11]).
For the molecule `CCS(=O)(=O)Nc1ccc(Oc2ccc(F)cc2F)c(-c2ccc(=O)n(C)c2)c1` [Example 99, N-[4-(2,4-difluorophenoxy)-3-(1-methyl-6-oxopyridin-3-yl)phenyl]ethanesulfonamide], the IC50 in assay [1] (setting [9]) is greater than 5000 nM; at BRD4(BD1) (class symbols A/B/C), less than 500 nM; in assay [2] (setting [10]) it was less than 500 nM; in assay [3] (setting [11]), less than 500 nM.
For the molecule `CCS(=O)(=O)Nc1ccc(Oc2ccc(F)cc2F)c(-c2cn(C)c(=O)c3ncoc23)c1` [Example 240, N-[4-(2,4-difluorophenoxy)-3-(5-methyl-4-oxo-[1,3]oxazolo[4,5-c]pyridin-7-yl)phenyl]ethanesulfonamide], the concentration for half-maximal inhibition (IC50) in assay [1] (setting [4]) was greater than 5000 nM; at BRD4(BD1) (setting [5]), less than 500 nM; in assay [2] (Raji, Cell-MTS proliferation) it was less than 500 nM; in assay [3] (HL-60, Cell-MTS proliferation), less than 500 nM.
Turning to `CN(C)c1cc(-c2cc(NS(C)(=O)=O)ccc2Oc2ccc(F)cc2F)cn(C)c1=O` [Example 463, N-[4-(2,4-difluorophenoxy)-3-[5-(dimethylamino)-1-methyl-6-oxopyridin-3-yl]phenyl]methanesulfonamide], the half-maximal inhibitory concentration (IC50) in assay [1] (setting [6]) was greater than 5000 nM; against BRD4(BD1) (setting [5]), less than 500 nM; in assay [2] (setting [7]) it was less than 500 nM; in assay [3] (setting [8]), less than 500 nM.
Regarding `CCc1cnc(NS(=O)(=O)CC)nc1-c1cc(C)c(=O)n(C)c1` [Example 307, N-[4-(1,5-dimethyl-6-oxopyridin-3-yl)-5-ethylpyrimidin-2-yl] ethanesulfonamide], the IC50 in assay [1] (setting [4]) was greater than 5000 nM; at BRD4(BD1) (setting [5]) it was less than 500 nM; in assay [2] (Raji, Cell-MTS proliferation), less than 500 nM; in assay [3] (HL-60, Cell-MTS proliferation) it was less than 500 nM.
As to `Cn1cc(-c2cc(CS(C)(=O)=O)ccc2OCC(F)(F)F)c2ccoc2c1=O` [Example 258, 6-methyl-4-[5-(methylsulfonylmethyl)-2-(2,2,2-trifluoroethoxy)phenyl]furo[2,3-c]pyridin-7-one], the half-inhibitory concentration (IC50) in assay [1] (setting [4]) was 500 to 5000 nM; at BRD4(BD1) (setting [5]) it was less than 500 nM; in assay [2] (Raji, Cell-MTS proliferation) it was 500 to 5000 nM; in assay [3] (HL-60, Cell-MTS proliferation), less than 500 nM.
